From patent US20260184689A1, “PIPERIDINE-SUBSTITUTED BENZOIC ACID COMPOUND, AND PHARMACEUTICAL COMPOSITION AND USE THEREOF” (SHANGHAI YISHENG BIOPHARMACEUTICAL COMPANY LIMITED, priority 2022, published 2026)

Legend:
[1] = tested on: Sheep Anti-Rat Fx1A Serum induced Heymann nephritis; assay: In vivo efficacy assay of passive Heymann nephritis in rats; settings: male SD rats, intragastric twice a day for 14 days, 5, 20 and 60 mpk; LNP023 60 mpk
From the text: Experimental objective: To investigate the ability of the compounds of the present disclosure to improve renal function of Sheep Anti-Rat Fx1A Serum induced Heymann nephritis in rats, including the evaluation of reducing proteinuria level and improving renal tissue damage.
Experimental animals: Male SD rats, 7 to 10 weeks old, weighing between 200 to 300 g.
Urine was collected from rats on D-2 before administration. On D1, the first day of the experiment, animals in the control group (group 1) were administered 5 mL/kg of Sheep Non-Immune serum via a single tail vein injection; animals in the model and administration groups (groups 2 to 6) were administered 5 mL/kg of Sheep Anti-Rat Fx1A Serum via a single tail vein injection.
The rats were treated by intragastric administration twice a day with an interval of 8 hours and a volume of 10 mL/kg. On D1, 1 hour before modeling, animals in groups 1 and 2 were administered blank vehicle 20% PEG400/10% Solutol/70% water; animals in group 3 were administered LNP023 (60 mpk); animals in groups 4 to 6 were administered different concentrations of synthetic compounds (5 mpk, 20 mpk, and 60 mpk); 8 hours after the first administration, each group was administered again with the same dose and volume as the first administration. From D2 to D14, animals in each group were administered different compounds or vehicles for 14 consecutive days (including the first day) according to the dose, volume, administration method, and frequency on D1.
Urine collection: Urine samples were collected from rats on D-2 before administration, and 2 to 4 hours and 4 to 6 hours after the first administration on D4, D6, D8, D11, and D14 after administration, transferred to EP tubes and stored in a refrigerator at −80° C. to −60° C. for the detection of urine protein and creatinine in rats.
Kidney sample collection: All animals were euthanized with CO2 inhalation anesthesia on Day 15, and bilateral kidneys were collected. The left kidney was cut transversely, and the right kidney was cut longitudinally. Half of the transversely cut kidney (left side) and half of the longitudinally cut kidney (right side) were fixed in formalin (placed in the same EP tube).
4. […] Urine total protein (uTP) in rats was detected without dilution; if exceeding the upper detection limit, it was 10-fold diluted (10 μL of sample+90 μL of saline (0.9% saline)) first (Decrease mode); if still exceeding the upper detection limit after 10-fold dilution, it was 100-fold diluted (2 μL of sample+198 μL of saline (0.9% saline)) (Increase mode). Data were read by the analytical instrument HITACHI LST008AS(P). • (2) Kidney pathological scoring: The degree of drug damage to rat kidneys (paraffin sections) was analyzed by HE staining. […]

[2] = target: T1, Complement factor B (Homo sapiens, UniProt P00751); assay: Human complement factor B ELISA assay (CVF-Bb, complement C3 protein); type: biochemical; set-up: followed by the addition of 0.2 μL of CVF-Bb (0.1 μmol/mL); settings: CVF-Bb incubated with compound 1 hour, then complement C3 protein 37° C. 2 hours, OD 450 nm
Procedure: The mixture was incubated at room temperature for 1 hour;
Then, 9 μL of the successfully incubated samples were taken and added to the wells of the 96T plate, followed by the addition of 1 μL complement C3 protein, and the reaction was carried out at a constant temperature of 37° C. for 2 hours;
The 9 μL of the aforementioned sample-free liquid was mixed with 1 μL of complement C3 protein as the negative control; • 10 μL of the successfully incubated sample was taken, and the inhibitory concentration was determined by ELISA. The OD value at 450 nm was measured, and a curve was plotted. The obtained data were analyzed using GraphPad Prism 7.0 software, and a Log concentration-inhibition rate curve was generated using a nonlinear regression model to calculate the IC50 value.
Target sequence in this assay (P00751 260-764 limits assumed): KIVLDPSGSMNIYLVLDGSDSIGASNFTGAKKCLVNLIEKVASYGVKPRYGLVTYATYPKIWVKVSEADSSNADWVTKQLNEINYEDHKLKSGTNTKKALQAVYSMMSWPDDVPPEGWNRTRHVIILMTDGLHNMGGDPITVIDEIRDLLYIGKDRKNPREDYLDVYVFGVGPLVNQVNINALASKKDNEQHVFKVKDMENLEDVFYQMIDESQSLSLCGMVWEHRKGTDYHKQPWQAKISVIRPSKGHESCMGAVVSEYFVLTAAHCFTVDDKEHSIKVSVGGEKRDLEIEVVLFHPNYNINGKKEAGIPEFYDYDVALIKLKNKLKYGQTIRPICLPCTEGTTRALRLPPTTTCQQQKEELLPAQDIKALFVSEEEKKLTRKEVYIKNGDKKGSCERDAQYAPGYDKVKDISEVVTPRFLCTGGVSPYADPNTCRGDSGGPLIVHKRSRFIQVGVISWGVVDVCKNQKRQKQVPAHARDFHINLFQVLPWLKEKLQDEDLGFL
Target sequence in this assay (Q91132 23-649 partner limits assumed): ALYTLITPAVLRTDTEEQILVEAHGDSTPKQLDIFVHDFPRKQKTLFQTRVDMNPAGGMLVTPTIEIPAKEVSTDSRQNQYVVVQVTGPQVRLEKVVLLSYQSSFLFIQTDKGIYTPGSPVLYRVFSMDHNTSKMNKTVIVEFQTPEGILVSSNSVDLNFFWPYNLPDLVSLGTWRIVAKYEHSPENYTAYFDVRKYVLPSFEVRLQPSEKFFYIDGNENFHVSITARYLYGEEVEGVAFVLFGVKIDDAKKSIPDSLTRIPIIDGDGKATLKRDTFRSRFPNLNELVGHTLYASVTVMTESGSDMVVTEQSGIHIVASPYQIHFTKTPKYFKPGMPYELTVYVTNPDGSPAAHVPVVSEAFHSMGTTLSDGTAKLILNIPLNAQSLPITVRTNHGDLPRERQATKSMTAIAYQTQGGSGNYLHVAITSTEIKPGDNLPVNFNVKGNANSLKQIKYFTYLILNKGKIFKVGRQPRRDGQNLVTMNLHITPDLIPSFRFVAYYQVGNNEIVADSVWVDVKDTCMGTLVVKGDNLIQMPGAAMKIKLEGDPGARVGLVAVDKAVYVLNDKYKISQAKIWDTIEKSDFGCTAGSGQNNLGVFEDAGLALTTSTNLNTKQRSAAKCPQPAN
Target sequence in this assay (Q91132 733-984 partner limits assumed): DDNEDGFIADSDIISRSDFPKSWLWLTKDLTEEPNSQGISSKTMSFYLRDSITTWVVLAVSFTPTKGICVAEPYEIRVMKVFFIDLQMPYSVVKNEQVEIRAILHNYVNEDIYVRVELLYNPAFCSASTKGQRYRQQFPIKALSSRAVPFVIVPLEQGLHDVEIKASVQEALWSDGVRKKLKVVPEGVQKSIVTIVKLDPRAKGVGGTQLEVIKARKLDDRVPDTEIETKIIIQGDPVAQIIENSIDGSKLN
Target sequence in this assay (Q91132 1264-1642 partner limits assumed): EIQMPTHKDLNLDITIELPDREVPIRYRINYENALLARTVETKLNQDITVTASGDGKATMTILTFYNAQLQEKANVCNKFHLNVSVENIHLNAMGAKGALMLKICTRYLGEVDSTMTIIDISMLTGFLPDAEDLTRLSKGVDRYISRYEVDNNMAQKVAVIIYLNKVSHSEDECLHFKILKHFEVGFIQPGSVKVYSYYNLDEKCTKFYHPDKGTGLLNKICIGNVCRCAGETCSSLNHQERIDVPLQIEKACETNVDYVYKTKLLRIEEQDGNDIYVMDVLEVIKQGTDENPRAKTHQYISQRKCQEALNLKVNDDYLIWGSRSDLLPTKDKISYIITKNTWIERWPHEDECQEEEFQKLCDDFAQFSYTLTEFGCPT

[3] = target: T1, Complement factor B; assay: Optical surface plasmon resonance (SPR) binding affinity assay
Target sequence in this assay (P00751 26-764): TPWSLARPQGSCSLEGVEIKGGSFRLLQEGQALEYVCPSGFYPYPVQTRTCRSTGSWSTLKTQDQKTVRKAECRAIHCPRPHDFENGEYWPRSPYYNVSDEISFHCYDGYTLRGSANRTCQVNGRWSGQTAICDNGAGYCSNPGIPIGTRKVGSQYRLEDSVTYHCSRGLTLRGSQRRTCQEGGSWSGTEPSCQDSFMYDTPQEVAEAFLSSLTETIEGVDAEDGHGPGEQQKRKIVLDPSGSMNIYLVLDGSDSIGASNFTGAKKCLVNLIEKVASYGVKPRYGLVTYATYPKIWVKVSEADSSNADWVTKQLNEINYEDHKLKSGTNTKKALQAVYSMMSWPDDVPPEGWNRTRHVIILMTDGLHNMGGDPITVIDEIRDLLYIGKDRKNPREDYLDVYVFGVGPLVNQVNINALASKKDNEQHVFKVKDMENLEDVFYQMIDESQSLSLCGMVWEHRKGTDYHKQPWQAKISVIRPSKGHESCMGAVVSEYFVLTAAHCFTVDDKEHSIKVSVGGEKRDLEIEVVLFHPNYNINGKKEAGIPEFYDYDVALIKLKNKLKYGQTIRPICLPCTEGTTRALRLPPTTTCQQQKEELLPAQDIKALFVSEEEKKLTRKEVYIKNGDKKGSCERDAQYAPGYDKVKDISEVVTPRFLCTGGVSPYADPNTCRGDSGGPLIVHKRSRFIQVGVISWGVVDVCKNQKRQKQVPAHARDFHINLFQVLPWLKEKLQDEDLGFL
Procedure: The SPR experiment was conducted at 25° C. using PBS buffer supplemented with 0.05% (v/v) P20 and 5% DMSO as the running buffer. The Biacore 8K instrument from GE Healthcare was employed for analysis. The CM3 chip (GE Healthcare) was activated with 400 mM EDC and 100 mM NHS at a flow rate of 30 μL/min for 420 s.

Row | SMILES | performance in the kidney disease model through urine and kidney pathology analysis, compared with LNP023 [1] | IC50 [2] [nM] | Kd [3] [nM]
1 | CCCC1CCN(C(=O)c2c(OC)cc(C)c3[nH]ccc23)[C@H](c2ccc(C(=O)O)cc2)C1 (mixture of isomers) [Final product of Example 158, 4-((2S)-1-(5-Methoxy-7-methyl-1H-indole-4-carbonyl)-4-propylpiperidin-2-yl)benzoic acid] | performed better | 5 to 30 | 5 to 20
2 | CCCC1CCN(C(=O)c2c(OC)cc(C)c3[nH]ccc23)C(c2ccc(C(=O)O)cc2)C1 (single isomer, unassigned) [Compound 159A] | performed better | 5 to 30 | 5 to 20
3 | CCO[C@H]1CCN(Nc2c(OC)cc(C)c3[nH]ccc23)[C@H](c2ccc(C(=O)O)cc2)C1 [Compound 11 of Example 75, 4-((2S,4S)-4-Ethoxy-1-((5-methoxy-7-methyl-1H-indol-4-yl)amino)piperidin-2-yl)benzoic acid] | performed better | 10 to 30 | 5 to 20
